Experimental data published in patent publication US8637040B2, “Genus-wide chlamydial peptide vaccine antigens” (priority 2008, dated 2014).

How the values were obtained:
human sera = experiment: ELISA of human serum samples on 4 peptides (Example XI); assay type: binding
Protocol: (§1) Blood was collected prior to immunizations and prior to the two boosts. Sera were tested in ELISA. The ELISA method used in the present examples, in which many if not all the parameters and conditions may be varied or modified in ways that are completely conventional in the art, is described below. • 1. 96 well plates (Immulon HBX4) were coated with 50 μl of diluted antigen (peptides at 1 μg/well made in carbonate buffer) and incubated overnight at 4° C. • 2. Unbound antigen was removed by flicking the contents of the plate into a sink without further washing. • 3. Non-specific binding was blocked or prevented by adding 300 μL/well of 4% BSA/PBS-Tween 20 (0.05%). This was allowed to incubate for 2 hour at room temperature. • 4. The plates were washed once with PBS-Tween 20 (0.05%) and 50 μl of primary antibody was added per well at appropriate dilutions. When using serum, the starting dilution was 1:40 and was further diluted by doublings to 1:80, 1:160, and 1:320 (or higher as desired). Plates were incubated for 1 hour at 37° C. • 5. Plates were washed three times with PBS-Tween (0.05%) as above and 100 μl of secondary antibody was added per well at appropriate dilutions. For alkaline phosphatase-conjugated goat anti-mouse IgG-AP, a dilution of 1:500 was used here. Plates were incubated for 1 hour at 37° C. • 6. Plates were again washed three times as above and 200 μl of substrate solution for Alkaline phosphatase (p-nitro phenyl phosphate or pNPP) was added at a concentration of 5 mg/ml. The color reaction was read in an automated microplate reader at a frequency of […] and the absorbance (or optical density) was registered (referred to as A405 or OD405) Several important observations were made in these tests against the 4 peptides: (a) all 4 peptides were immunogenic and induced increasing anti-peptide responses with subsequent boosts in all mice (except in one non-responder) (FIG. 3). […] See also FIG. 16A-16B
Human sera were tested by PCR for expression of several chlamydial genes, by IHC against C. trachomatis-infected cells and by ELISA against several of the peptides of the present invention. Results are shown in Table 7 (below) which include results from PCR-studies for presence of DNA encoding the chlamydial Major Outer Membrane Protein (MOMP) in human peripheral blood mononuclear cells (PBMC) (which are primarily lymphocytes and monocytes) and cervical swabs
Also shown is IHC staining of C. trachomatis-infected human HEp2 cells and binding of antibodies in the patient samples to four peptides of the present invention (Pep4, 7, 8, and 10) in ELISA.

mice = experiment: Anti-Pep4 ELISA after SC immunization with free vs. PLA-microencapsulated Pep4; assay type: in vivo, mouse; settings: SC x 3; free Pep4 40 μg, Pep4-MP 10, 20 and 40 μg
Protocol: FIG. 17A-17F show results in ELISA of sera of mice immunized SC with various doses of the Pep4 as immunogen antigen either as free peptide or encapsulated in PLA microparticles (Pep4-MP). MP's were loaded at levels of between about 7.5 and about 9 μg peptide per mg PLA. Δ-Δ: results of pre-bleeds (before immunization). (▴-▴: results after a single primary immunization. ◯-◯: results after 1st boost. ●-●: results after 2nd boost. ▾-▾: results at the time of terminal bleed (day 28). Each point represents the mean absorbance value (OD405) for the sera of 4 or 5 individual mice of the designated group.
Additional studies were conducted to evaluate and compare the effects of immunization with the present peptides in free vs. microencapsulated form in PLA microparticles (MPs). Results are shown in FIGS. 17, 18A-18F and 19A-19B.
Mice were immunized subcutaneously 3 times (primary, 1st first boost at day 14, 2nd boost at day 28) according to a schedule shown below with the indicated peptide antigen or soluble mAb2 polypeptide or were control animals that were infected but not immunized (relevant for FIG. 18A-F). Free Pep4 peptide was tested at the 40 μg dose, whereas Pep4-MP was tested at 10, 20 and 40 μg doses. Blood was collected before each immunization and at the end of the experiment (day +28).

C trachomatis = experiment: DFA staining of vaginal smears after challenge of peptide-immunized mice; assay type: in vivo, mouse; settings: mice immunized three times at 100 μg doses; days 7 and 14 post-challenge
Excerpt: Mice are challenged with a human biovar of C trachomatis (K or E serovars for urogenital infections; C or B serovars for ocular infection).
Groups of 4-8 mice are “masked” as to pretreatment before challenge with live elementary bodies (EB). At weekly intervals through at least 4 wks, vaginal (or conjunctival) swabs are collected for isolation culture and direct fluorescence antibody staining for EB.
Using the murine models described above, the present inventors immunized mice with one of the four peptides (Pep4, 7, 8 or 10) administered three times at 100 μg doses. Results of direct fluorescent antibody (DFA) staining are summarized for days 7 and 14 post-challenge in FIGS. 10-11.

Pep4, Pep7, Pep8, Pep10 = experiment: Cross-reactivity between peptides in ELISA; assay type: binding; settings: sera of mice immunized with a single peptide
Protocol: as §1
Both of these are category #1 peptides. […] That supports the notion that CDR1 and CDR3 of mAb2 are antigenically distinct.

For AFPQFRSATLLL [Pep4], the “ELISA 1:40 on 4 peptides Scale: 1+-3+” value (human sera; human serum sample # 1) was 2, the “ELISA 1:40 on 4 peptides Scale: 1+-3+” value (human sera; human serum sample # 2) was 0.75 and the “ELISA 1:40 on 4 peptides Scale: 1+-3+” value (human sera; human serum sample # 3) was 2.5. For the same sequence, the “ELISA 1:40 on 4 peptides Scale: 1+-3+” value (human sera; human serum sample # 5) was 2, the “ELISA 1:40 on 4 peptides Scale: 1+-3+” value (human sera; human serum sample # 7) was 0.75 and the “ELISA 1:40 on 4 peptides Scale: 1+-3+” value (human sera; human serum sample # 8) was 3. The “ELISA 1:40 on 4 peptides Scale: 1+-3+” value (human sera; human serum sample # 9) was 3, the “ELISA 1:40 on 4 peptides Scale: 1+-3+” value (human sera; human serum sample # 10) was 3 and the “ELISA 1:40 on 4 peptides Scale: 1+-3+” value (human sera; human serum sample # 12) was 2. The “ELISA 1:40 on 4 peptides Scale: 1+-3+” value (human sera; human serum sample # 13) was 2, the “ELISA 1:40 on 4 peptides Scale: 1+-3+” value (human sera; human serum sample # 16) was 2 and the “ELISA 1:40 on 4 peptides Scale: 1+-3+” value (human sera; human serum sample # 18) was 2.5. The “ELISA 1:40 on 4 peptides Scale: 1+-3+” value (human sera; human serum sample # 21) was 1.5, the “ELISA 1:40 on 4 peptides Scale: 1+-3+” value (human sera; human serum sample # 22) was 1.5 and the “ELISA 1:40 on 4 peptides Scale: 1+-3+” value (human sera; human serum sample # 23) was 2. The “ELISA 1:40 on 4 peptides Scale: 1+-3+” value (human sera; human serum sample # 24) was 3, the “ELISA 1:40 on 4 peptides Scale: 1+-3+” value (human sera; human serum sample # 26) was 2 and the “anti-Pep4 antibody responses (ELISA)” value (mice) was “not as immunogenic as encapsulated Pep4 at equal or lower doses”. The DFA scores (C trachomatis) was “reduced DFA scores”, the “bacterial shedding measured by DFA staining” value (C trachomatis) was “reduced bacterial shedding” and the “cross-reactivity of raised Abs with Pep7 (ELISA)” value (Pep4, Pep7, Pep8, Pep10) was “cross reacted”.
